{"source": "BindingDB's records for doi:10.1021/jm00078a018", "about": "(Merck Research Laboratories, 1994)"}
{"test": "Inhibition of binding of [125I]-CCK-8 to the cholecystokinin type B receptor", "units": {"IC50": "nM"}}
{"smiles": "Cc1cccc(NC(=O)NC2N=C(c3ccccc3)c3ccccc3N(Cc3ncc[nH]3)C2=O)c1", "note": "(stereo unspecified) [1-[1-(1H-Imidazol-2-ylmethyl)-2-oxo-5-phenyl-2,3-dihydro-1H-benzo[e][1,4]diazepin-3-yl]-3-m-tolyl-urea]", "IC50": 59}
{"smiles": "CN1C(=O)C(NC(=O)Nc2ccncc2)N=C(c2ccccc2)c2ccccc21", "note": "(stereo unspecified) [1-(1-Methyl-2-oxo-5-phenyl-2,3-dihydro-1H-benzo[e][1,4]diazepin-3-yl)-3-pyridin-4-yl-urea]", "IC50": 1070}
{"smiles": "CN1C(=O)C(NC(=O)Nc2cccc(CC(=O)O)c2)N=C(c2ccccc2)c2ccccc21", "note": "(stereo unspecified) [{3-[3-(1-Methyl-2-oxo-5-phenyl-2,3-dihydro-1H-benzo[e][1,4]diazepin-3-yl)-ureido]-phenyl}-acetic acid]", "IC50": 4.9}
{"smiles": "Cc1cccc(NC(=O)NC2N=C(c3ccccc3)c3ccccc3N(CC(=O)Nc3ccncc3)C2=O)c1", "note": "(stereo unspecified) [2-[2-Oxo-5-phenyl-3-(3-m-tolyl-ureido)-2,3-dihydro-benzo[e][1,4]diazepin-1-yl]-N-pyridin-4-yl-acetamide]", "IC50": 48}
{"smiles": "CN1C(=O)C(NC(=O)Nc2ccc(N)nc2)N=C(c2ccccc2)c2ccccc21", "note": "(stereo unspecified) [1-(6-Amino-pyridin-3-yl)-3-(1-methyl-2-oxo-5-phenyl-2,3-dihydro-1H-benzo[e][1,4]diazepin-3-yl)-urea]", "IC50": 500}
{"smiles": "CN1C(=O)C(NC(=O)Nc2cccc(Cl)c2)N=C(c2ccccc2)c2ccccc21", "note": "(stereo unspecified) [1-(3-Chloro-phenyl)-3-(1-methyl-2-oxo-5-phenyl-2,3-dihydro-1H-benzo[e][1,4]diazepin-3-yl)-urea]", "IC50": 9.8}
